Square brackets hold non-standard residues; d marks the D form. Peptide text beside a SMILES is read from it.
Experiments:
[1] = target: T1, Kappa-type opioid receptor (Homo sapiens, UniProt P41145); assay: Displacement of [3H]diprenorphine from human cloned kappa opioid receptor by cell based assay
[2] = target: Delta-type opioid receptor (Homo sapiens, UniProt P41143); assay: Displacement of [3H]diprenorphine from human cloned delta receptor by cell based assay
Mu-type opioid receptor [3] = target: T2, Mu-type opioid receptor (Homo sapiens, UniProt P35372); assay: Displacement of [3H]diprenorphine from human cloned mu receptor by cell based assay
T2 sequence (P35372 whole entry): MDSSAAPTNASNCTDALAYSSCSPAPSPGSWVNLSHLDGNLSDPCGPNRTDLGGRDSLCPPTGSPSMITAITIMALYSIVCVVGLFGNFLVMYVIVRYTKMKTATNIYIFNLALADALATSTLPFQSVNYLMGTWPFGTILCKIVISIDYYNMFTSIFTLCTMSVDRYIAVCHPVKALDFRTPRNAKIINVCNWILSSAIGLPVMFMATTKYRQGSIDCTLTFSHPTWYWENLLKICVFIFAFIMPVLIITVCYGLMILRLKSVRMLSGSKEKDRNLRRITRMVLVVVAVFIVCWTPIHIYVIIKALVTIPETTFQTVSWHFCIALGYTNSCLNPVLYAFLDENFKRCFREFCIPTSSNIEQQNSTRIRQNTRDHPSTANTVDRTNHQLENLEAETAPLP

Homo sapiens = species: Homo sapiens; assay: Ratio of Ki for human cloned mu opioid receptor to Ki for human cloned kappa opioid receptor
[4] = Binding affinity to delta opioid receptor in guinea pig brain membrane; type: cell membranes, Cavia porcellus
[5] = Antagonist activity at kappa opioid receptor in rabbit vas deferens assessed as reversal of asimadoline-suppressed electrically-stimulated twitch response; type: functional, tissue-based; conditions: Oryctolagus cuniculus
[6] = target: T1, Kappa-type opioid receptor; assay: Antagonist activity at human cloned kappa opioid receptor assessed as inhibition of 50 nM U50488H-stimulated GTPgammaS binding by cell based assay; type: functional
[7] = target: Kappa-type opioid receptor (Cavia porcellus, UniProt P41144); assay: Binding affinity to kappa opioid receptor in guinea pig brain membrane; type: cell membranes
Sequence of Kappa-type opioid receptor (Cavia porcellus, UniProt P41144) (P41144 whole entry): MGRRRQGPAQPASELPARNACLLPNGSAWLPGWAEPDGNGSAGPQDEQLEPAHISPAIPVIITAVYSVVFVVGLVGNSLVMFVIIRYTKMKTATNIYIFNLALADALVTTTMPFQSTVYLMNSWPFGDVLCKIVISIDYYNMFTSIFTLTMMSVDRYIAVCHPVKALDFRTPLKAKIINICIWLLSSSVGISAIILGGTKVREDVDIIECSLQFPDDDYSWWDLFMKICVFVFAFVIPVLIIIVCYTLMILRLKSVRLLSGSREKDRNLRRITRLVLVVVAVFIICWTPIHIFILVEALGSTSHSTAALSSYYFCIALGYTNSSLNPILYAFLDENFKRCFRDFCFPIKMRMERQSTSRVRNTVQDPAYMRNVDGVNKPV

Mu-type opioid receptor [8] = target: Mu-type opioid receptor (Cavia porcellus, UniProt P97266); assay: Binding affinity to mu opioid receptor in guinea pig brain membrane; type: cell membranes
Sequence of Mu-type opioid receptor (Cavia porcellus, UniProt P97266) (P97266 whole entry): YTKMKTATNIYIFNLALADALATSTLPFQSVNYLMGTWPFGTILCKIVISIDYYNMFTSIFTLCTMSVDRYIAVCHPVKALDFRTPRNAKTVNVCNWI

Mu-type opioid receptor [9] = target: T2, Mu-type opioid receptor; assay: Antagonist activity at human cloned mu opioid receptor assessed as inhibition of 100 nM loperamide-stimulated GTPgammaS binding by cell based assay; type: functional

T1 sequence (P41145 whole entry): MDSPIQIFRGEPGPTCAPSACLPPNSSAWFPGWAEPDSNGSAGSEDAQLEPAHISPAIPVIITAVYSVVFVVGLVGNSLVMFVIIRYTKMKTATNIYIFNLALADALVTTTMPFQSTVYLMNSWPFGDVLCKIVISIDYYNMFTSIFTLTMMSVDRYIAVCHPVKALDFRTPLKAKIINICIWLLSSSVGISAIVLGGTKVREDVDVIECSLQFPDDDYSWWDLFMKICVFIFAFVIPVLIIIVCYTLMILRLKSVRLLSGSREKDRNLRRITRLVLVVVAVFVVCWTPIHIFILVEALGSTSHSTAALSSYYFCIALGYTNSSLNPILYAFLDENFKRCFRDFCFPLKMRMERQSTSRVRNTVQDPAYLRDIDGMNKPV
Sequence of Delta-type opioid receptor (P41143 whole entry): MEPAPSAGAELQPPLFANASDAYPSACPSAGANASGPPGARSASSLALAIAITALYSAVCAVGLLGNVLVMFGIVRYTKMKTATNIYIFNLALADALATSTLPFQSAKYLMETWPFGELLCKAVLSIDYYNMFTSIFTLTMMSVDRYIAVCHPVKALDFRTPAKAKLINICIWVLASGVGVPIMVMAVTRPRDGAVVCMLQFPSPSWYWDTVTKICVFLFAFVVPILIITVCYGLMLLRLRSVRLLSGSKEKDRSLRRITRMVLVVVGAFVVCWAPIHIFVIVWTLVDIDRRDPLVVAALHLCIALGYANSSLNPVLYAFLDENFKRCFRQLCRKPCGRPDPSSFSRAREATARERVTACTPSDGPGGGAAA

SMILES | Ki [1] [µM] | Ki [2] [µM] | Ki (Mu-type opioid receptor [3]) [µM] | Ratio Ki (Homo sapiens) | IC50 [4] [µM] | EC50 [5] [µM] | IC50 [6] [µM] | IC50 [7] [µM] | IC50 (Mu-type opioid receptor [8]) [µM] | IC50 (Mu-type opioid receptor [9]) [µM]
O=C1N[C@H](Cc2c[nH]c3ccccc23)C(=O)N[C@@H](Cc2ccc(O)cc2)C(=O)N2CCC[C@@H]2C(=O)N[C@H]1Cc1ccccc1 | 0.22 | > 1 | – | – | – | – | – | – | – | –
O=C1N[C@H](Cc2c[nH]c3ccccc23)C(=O)N[C@@H](Cc2ccc(F)cc2)C(=O)N2CCC[C@@H]2C(=O)N[C@H]1Cc1ccccc1 | 0.028 | > 1 | 0.21 | 7.5 | – | – | – | – | – | –
O=C1N[C@@H](Cc2ccccc2)C(=O)N2CCC[C@@H]2C(=O)N[C@@H](Cc2ccccc2)C(=O)N[C@H]1Cc1c[nH]c2ccccc12 (cyclo(FWF[dP])) | 0.029 | 2 | 0.13 | 4.5 | 2.6 | 1.3 | 0.44 | 0.047 | 0.26 | 0.025
O=C1N[C@H](Cc2c[nH]c3ccccc23)C(=O)NCC(=O)N2CCC[C@@H]2C(=O)N[C@H]1Cc1ccccc1 | 0.27 | > 1 | 0.77 | 2.8 | – | – | – | – | – | –
O=C1N[C@H](Cc2c[nH]c3ccccc23)C(=O)N[C@@H](Cc2cccc(O)c2)C(=O)N2CCC[C@@H]2C(=O)N[C@H]1Cc1ccccc1 | 0.078 | 0.67 | 0.037 | 0.47 | – | – | – | – | – | –
CC(=O)N[C@@H](Cc1ccccc1)C(=O)N[C@H](Cc1c[nH]c2ccccc12)C(=O)N[C@@H](Cc1ccccc1)C(=O)N1CCC[C@@H]1C(N)=O | > 1 | > 1 | 0.36 | – | – | – | – | – | – | –
O=C1N[C@H](Cc2c[nH]c3ccccc23)C(=O)N[C@@H](Cc2ccccc2)C(=O)N2CCC[C@@H]2C(=O)N[C@H]1Cc1cccc(O)c1 | 0.02 | 3.4 | 0.04 | 2 | – | – | – | – | – | –
O=C1N[C@H](Cc2c[nH]c3ccccc23)C(=O)N[C@@H](Cc2ccccc2)C(=O)N2CCC[C@@H]2C(=O)N[C@H]1Cc1ccc(F)cc1 | 0.021 | > 1 | 0.048 | 2.3 | – | – | – | – | – | –
C[C@@H]1NC(=O)[C@@H](Cc2c[nH]c3ccccc23)NC(=O)[C@H](Cc2ccccc2)NC(=O)[C@H]2CCCN2C1=O (cyclo(A[dP]F[dW])) | 0.0052 | > 1 | 0.022 | 4.2 | – | – | 0.005 | – | – | 0.048
O=C1N[C@H](Cc2c[nH]c3ccccc23)C(=O)N[C@@H](Cc2ccccc2)C(=O)N2CCC[C@@H]2C(=O)N[C@H]1Cc1ccccc1 (cyclo(F[dP]F[dW])) | 0.0038 | > 1 | 0.03 | 7.9 | – | – | 0.14 | – | – | 0.021
CC(=O)N[C@H](Cc1c[nH]c2ccccc12)C(=O)N[C@@H](Cc1ccccc1)C(=O)N1CCC[C@@H]1C(=O)N[C@@H](Cc1ccccc1)C(N)=O | > 1 | > 1 | > 1 | – | – | – | – | – | – | –
CC(=O)n1cc(C[C@H](N)C(=O)N[C@@H](Cc2ccccc2)C(=O)N2CCC[C@@H]2C(=O)N[C@@H](Cc2ccccc2)C(N)=O)c2ccccc21 | > 1 | > 1 | > 1 | – | – | – | – | – | – | –
CC(=O)N[C@@H](Cc1ccccc1)C(=O)N[C@@H](Cc1c[nH]c2ccccc12)C(=O)N[C@@H](Cc1ccccc1)C(=O)N1CCC[C@@H]1C(N)=O | > 1 | > 1 | > 1 | – | – | – | – | – | – | –
COc1ccc(C[C@@H]2NC(=O)[C@H]3CCCN3C(=O)[C@H](Cc3ccccc3)NC(=O)[C@@H](Cc3c[nH]c4ccccc34)NC2=O)cc1 | 0.014 | > 1 | 0.043 | 3.1 | – | – | – | – | – | –
C[C@H]1NC(=O)[C@H](Cc2ccccc2)NC(=O)[C@H]2CCCN2C(=O)[C@H](Cc2ccccc2)NC1=O | > 1 | > 1 | > 1 | – | – | – | – | – | – | –
O=C1N[C@H](Cc2c[nH]c3ccccc23)C(=O)N[C@@H](Cc2ccccc2)C(=O)N2CCC[C@@H]2C(=O)N[C@H]1Cc1ccc(O)cc1 | 0.14 | > 1 | 0.12 | 0.85 | – | – | – | – | – | –
C[C@@H]1NC(=O)[C@H]2CCCN2C(=O)[C@H](Cc2ccccc2)NC(=O)[C@@H](Cc2c[nH]c3ccccc23)NC1=O (cyclo(A[dW]F[dP])) | 1.3 | > 1 | 2.2 | 1.7 | – | – | – | – | – | –
CC(=O)N[C@@H](Cc1ccccc1)C(=O)N1CCC[C@@H]1C(=O)N[C@@H](Cc1ccccc1)C(=O)N[C@@H](Cc1c[nH]c2ccccc12)C(N)=O | > 1 | > 1 | > 1 | – | – | – | – | – | – | –
CC(=O)N[C@@H](Cc1ccccc1)C(=O)N1CCC[C@@H]1C(=O)N[C@@H](Cc1ccccc1)C(=O)N[C@H](Cc1c[nH]c2ccccc12)C(N)=O | > 1 | > 1 | > 1 | – | – | – | – | – | – | –
COc1ccc(C[C@@H]2NC(=O)[C@@H](Cc3c[nH]c4ccccc34)NC(=O)[C@H](Cc3ccccc3)NC(=O)[C@H]3CCCN3C2=O)cc1 | 0.066 | > 1 | 0.17 | 2.6 | – | – | – | – | – | –
CC(=O)N1CCC[C@@H]1C(=O)N[C@@H](Cc1ccccc1)C(=O)N[C@@H](Cc1c[nH]c2ccccc12)C(=O)N[C@@H](Cc1ccccc1)C(N)=O | > 1 | > 1 | > 1 | – | – | – | – | – | – | –
CC(=O)N1CCC[C@@H]1C(=O)N[C@@H](Cc1ccccc1)C(=O)N[C@H](Cc1c[nH]c2ccccc12)C(=O)N[C@@H](Cc1ccccc1)C(N)=O | > 1 | > 1 | 0.34 | – | – | – | – | – | – | –
